Assays:
Test in all cases: biochemical
Type in all cases: biochemical
382 unique human kinases [1] = target: T1, 382 unique human kinases (Homo sapiens, UniProt Q8WTQ7); details: GRK7, 10 uM; for remaining activity at 10 µM: read-out: % Enzyme Activity (relative to DMSO controls)
T1 construct: purchased Reaction Biology (HotSpot contract assay)
T1 sequence (Q8WTQ7 1-553): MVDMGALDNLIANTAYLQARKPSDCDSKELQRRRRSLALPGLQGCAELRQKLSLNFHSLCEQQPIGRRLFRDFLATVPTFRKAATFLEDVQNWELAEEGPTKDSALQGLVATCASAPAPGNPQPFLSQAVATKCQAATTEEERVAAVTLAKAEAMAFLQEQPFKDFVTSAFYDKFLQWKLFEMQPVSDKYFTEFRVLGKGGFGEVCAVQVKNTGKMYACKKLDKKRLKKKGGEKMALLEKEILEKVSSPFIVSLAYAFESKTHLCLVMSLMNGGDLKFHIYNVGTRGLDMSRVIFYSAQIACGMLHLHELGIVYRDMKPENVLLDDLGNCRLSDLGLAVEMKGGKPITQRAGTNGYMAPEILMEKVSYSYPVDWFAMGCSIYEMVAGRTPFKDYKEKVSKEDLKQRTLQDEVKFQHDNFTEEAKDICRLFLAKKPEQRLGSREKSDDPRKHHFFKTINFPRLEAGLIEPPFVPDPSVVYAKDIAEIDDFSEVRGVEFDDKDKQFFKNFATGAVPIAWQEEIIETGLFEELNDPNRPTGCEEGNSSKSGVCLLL

382 unique human kinases [2] = target: T2, 382 unique human kinases (Homo sapiens, UniProt Q16566); details: kinase CAMK4, compound 10 uM; for remaining activity at 10 µM: read-out: % Enzyme Activity (relative to DMSO controls)
T2 construct: purchased Reaction Biology (HotSpot contract assay)
T2 sequence (Q16566 1-473): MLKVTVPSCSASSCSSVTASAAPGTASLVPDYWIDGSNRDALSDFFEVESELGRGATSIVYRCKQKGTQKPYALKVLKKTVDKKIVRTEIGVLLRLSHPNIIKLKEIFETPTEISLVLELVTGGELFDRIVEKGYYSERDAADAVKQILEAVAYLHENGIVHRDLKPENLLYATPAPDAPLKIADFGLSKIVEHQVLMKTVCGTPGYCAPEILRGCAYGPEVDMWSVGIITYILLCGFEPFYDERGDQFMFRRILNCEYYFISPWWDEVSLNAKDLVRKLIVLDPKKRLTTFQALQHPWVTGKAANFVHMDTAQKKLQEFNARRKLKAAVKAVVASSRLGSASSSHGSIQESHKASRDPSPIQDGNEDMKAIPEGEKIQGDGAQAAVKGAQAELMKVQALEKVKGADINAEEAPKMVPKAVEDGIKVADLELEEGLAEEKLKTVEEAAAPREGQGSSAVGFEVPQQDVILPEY

382 unique human kinases [3] = target: T3, 382 unique human kinases (Homo sapiens, UniProt Q6VAB6); details: KSR2, 10 uM; for remaining activity at 10 µM: read-out: % Enzyme Activity (relative to DMSO controls)
T3 sequence (Q6VAB6 1-950): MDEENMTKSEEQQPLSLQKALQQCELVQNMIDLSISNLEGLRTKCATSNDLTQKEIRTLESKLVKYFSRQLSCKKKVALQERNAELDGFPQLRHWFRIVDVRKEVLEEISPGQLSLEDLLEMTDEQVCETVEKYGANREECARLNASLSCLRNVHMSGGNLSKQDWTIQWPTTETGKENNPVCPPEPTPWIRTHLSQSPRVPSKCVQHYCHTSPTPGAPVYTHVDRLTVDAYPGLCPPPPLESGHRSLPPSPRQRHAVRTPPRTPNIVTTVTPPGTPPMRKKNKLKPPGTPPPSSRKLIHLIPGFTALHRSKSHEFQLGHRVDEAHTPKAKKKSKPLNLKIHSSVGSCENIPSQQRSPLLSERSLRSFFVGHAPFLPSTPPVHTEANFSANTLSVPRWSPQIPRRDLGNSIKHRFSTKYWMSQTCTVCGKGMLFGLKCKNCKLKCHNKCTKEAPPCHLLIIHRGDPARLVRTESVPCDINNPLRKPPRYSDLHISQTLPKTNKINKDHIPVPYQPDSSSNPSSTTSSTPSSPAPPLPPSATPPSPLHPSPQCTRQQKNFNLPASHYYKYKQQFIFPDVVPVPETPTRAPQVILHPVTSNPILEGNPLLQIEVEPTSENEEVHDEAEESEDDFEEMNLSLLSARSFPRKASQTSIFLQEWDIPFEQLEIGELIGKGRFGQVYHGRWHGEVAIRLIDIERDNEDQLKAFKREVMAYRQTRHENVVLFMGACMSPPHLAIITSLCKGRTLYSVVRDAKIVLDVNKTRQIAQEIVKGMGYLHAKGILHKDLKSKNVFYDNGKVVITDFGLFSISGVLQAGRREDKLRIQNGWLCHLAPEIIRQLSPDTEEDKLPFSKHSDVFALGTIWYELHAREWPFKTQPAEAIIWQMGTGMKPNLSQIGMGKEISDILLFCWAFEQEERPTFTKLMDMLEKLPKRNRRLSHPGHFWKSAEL

382 unique human kinases [4] = target: T4, 382 unique human kinases (Homo sapiens, UniProt Q9H2K8); details: TAOK3/JIK, 10 uM; for remaining activity at 10 µM: read-out: % Enzyme Activity (relative to DMSO controls)
T4 construct: purchased Reaction Biology (HotSpot contract assay)
T4 sequence (Q9H2K8 1-898): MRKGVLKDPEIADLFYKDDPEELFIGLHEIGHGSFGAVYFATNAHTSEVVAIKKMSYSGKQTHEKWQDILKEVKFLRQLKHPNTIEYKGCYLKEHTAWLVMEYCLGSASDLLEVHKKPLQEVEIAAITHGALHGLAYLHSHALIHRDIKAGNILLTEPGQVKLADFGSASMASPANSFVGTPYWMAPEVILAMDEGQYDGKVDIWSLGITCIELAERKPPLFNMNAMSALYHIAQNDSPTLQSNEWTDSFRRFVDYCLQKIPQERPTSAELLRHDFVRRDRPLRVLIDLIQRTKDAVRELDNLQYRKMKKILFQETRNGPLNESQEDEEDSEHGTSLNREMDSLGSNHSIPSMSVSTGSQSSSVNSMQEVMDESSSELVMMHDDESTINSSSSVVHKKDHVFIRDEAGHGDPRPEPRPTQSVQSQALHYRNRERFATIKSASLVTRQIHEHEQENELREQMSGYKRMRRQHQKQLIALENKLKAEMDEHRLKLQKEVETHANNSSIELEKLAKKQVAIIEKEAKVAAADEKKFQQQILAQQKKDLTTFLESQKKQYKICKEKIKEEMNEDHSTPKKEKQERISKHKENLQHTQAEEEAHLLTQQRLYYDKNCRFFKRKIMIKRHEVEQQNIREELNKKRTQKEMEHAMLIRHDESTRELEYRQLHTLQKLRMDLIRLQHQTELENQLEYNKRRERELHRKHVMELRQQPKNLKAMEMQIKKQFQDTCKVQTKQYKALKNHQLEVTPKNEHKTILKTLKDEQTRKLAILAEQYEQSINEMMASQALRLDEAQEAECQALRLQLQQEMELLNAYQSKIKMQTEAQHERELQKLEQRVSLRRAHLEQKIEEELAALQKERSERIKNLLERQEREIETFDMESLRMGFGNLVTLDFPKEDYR

Row | Structure (SMILES) | remaining activity at 10 µM (382 unique human kinases [1]) | remaining activity at 10 µM (382 unique human kinases [2]) | remaining activity at 10 µM (382 unique human kinases [3]) | remaining activity at 10 µM (382 unique human kinases [4]) | % Enzyme Activity (relative to DMSO controls) (382 unique human kinases [1]) | % Enzyme Activity (relative to DMSO controls) (382 unique human kinases [2]) | % Enzyme Activity (relative to DMSO controls) (382 unique human kinases [3]) | % Enzyme Activity (relative to DMSO controls) (382 unique human kinases [4])
1 | CC(C)c1cc(-c2n[nH]c(=O)n2-c2ccc3c(ccn3C)c2)c(O)cc1O [Ganetespib (STA9090)] | 75.4% | 91% | – | – | – | – | – | –
2 | CC(C)c1cc(-c2n[nH]c(=O)n2-c2ccc3c(ccn3C)c2)c(O)cc1O [Ganetespib] | – | – | 94.1% | 126% | – | – | – | –
3 | CCNC(=O)c1noc(-c2cc(C(C)C)c(O)cc2O)c1-c1ccc(CN2CCOCC2)cc1 [Luminespib (AUY-922)] | 96.7% | 93.7% | – | – | 95.66% | 90.30% | – | –
4 | CCNC(=O)c1noc(-c2cc(C(C)C)c(O)cc2O)c1-c1ccc(CN2CCOCC2)cc1 [Luminespib] | – | – | 96.3% | 100% | – | – | 96.02% | 98.33%

Reference: paper PMC8550792, “Evolution of kinase polypharmacology across HSP90 drug discovery” (Cell Chemical Biology, 2021)
